Assay results from publication PMC9958891 (2023).

What was measured:
[1] = test system: 5'-FAM-c-myc-TAMRA-3' (c-myc G4 DNA, FRET) (DNA, G4) TGAGGGTGGGTAGGGTGGGTAA; assay: FRET melting; conditions: K+ 100 mM, Na+ (10 mM Na3AsO4); 10 mM Tris-HCl pH 7.4; 0.2 μM DNA; compound concentration not stated; value per abstract, b23 order differs
[2] = test system: c-myc Pu22 (c-myc G4 DNA) (DNA, G4) TGAGGGTGGGTAGGGTGGGTAA; assay: UV-vis absorption titration; conditions: K+ 100 mM; 10 mM Tris-HCl, pH 7.2, room temperature; 20 μM complex

Structure (SMILES): COc1ccc(CCc2cc(OC)c(OC)c(OC)c2)cc1OCCCCn1c(-c2ccc(C(F)(F)F)cc2)nc2c3cccnc3c3ncccc3c21.[Ru+2].c1cnc2c(c1)ccc1cccnc12.c1cnc2c(c1)ccc1cccnc12
- ΔTm [1]: ~ 16.5 °C
- binding constant [2]: ~ 2.05 × 10^7 M^−1

Structure (SMILES): COc1ccc(CCc2cc(OC)c(OC)c(OC)c2)cc1OCCCCn1c(-c2ccccc2C(F)(F)F)nc2c3cccnc3c3ncccc3c21.[Ru+2].c1cnc2c(c1)ccc1cccnc12.c1cnc2c(c1)ccc1cccnc12
- ΔTm [1]: ~ 15.5 °C
